# According to patent US20230346884A1, “Molecular Targets for Modulation of Dissociative and Associative States” (The Board of Trustees of the Leland Stanford Junior …, priority 2020, published 2023):
# Entries after “also recorded” stand apart in the source; their conditions may differ.
# Assays:
# [1] = test system: retrosplenial cortex (RSP); assay: Widefield (pan-cortical) imaging of cortical activity in GCaMP6s mice; settings: widefield imaging; i.p.; ketamine 50 mg/kg subanesthetic dose; other drugs at doses of b234
# Procedure: (2 mg/kg), lidocaine (topical), LSD ((+)-Lysergic acid diethylamide (+)-tartrate (2:1), 0.3 mg/kg), and diazepam (2 mg/kg). […] For anti-depressant effects, human doses are typically 0.3-1 mg/kg, and in mouse 3-10 mg/kg.
# As described^8, mice were anesthetized with isoflurane, the scalp was removed, the skull cleaned and dried, and a custom head-plate was cemented to contacts over the cerebellum and in front of the olfactory bulb. The skull was then covered in a thin layer of cyanoacrylate glue (Apollo 2000, Cyberbond), clear dental acrylic (Ortho-Jet, Lang Dental), and clear nail polish (Electron Microscopy Services). […] (0.1 mg/kg) was injected subcutaneously for pain management. […] Imaging was performed on a custom-built fluorescence microscope designed for high light collection efficiency and large field of view. […] Alternating 410 nm and 488 nm illumination for non-Ca^2+ dependent artifact removal was controlled using a microcontroller (Arduino) slaved to the frame output trigger of the camera.
# Analysis was performed using custom MATLAB (MathWorks) scripts. Widefield imaging videos were registered to a 2D top-projection atlas generated from the annotated Allen Brain Atlas volume, version CCFv2, in MATLAB (MathWorks), using an affine transformation computed from four manually selected control points. Each video was DF/F normalized, using the median for each pixel over the entire time series as F. The 410 nm channel was then temporally smoothed using a moving average (width=400 ms). The smoothed 410 nm DF/F signal for each pixel was regressed onto the 488 nm DF/F signal for the corresponding pixel, and the regression coefficients were used to scale the 410 nm channel to the 488 nm channel. This scaled 410 nm DF/F signal was then subtracted from the 488 nm DF/F signal to produce a normalized signal for each pixel. For quantification, activity traces were extracted from points centered in five cortical regions (visual, somatosensory, parietal, motor, retrosplenial) on the left hemisphere of the brain. The video data was Gaussian smoothed spatially (radius=2 pixels). Similarly, for fiber photometry recordings, the 410 nm signal was regressed onto the 488 nm signal, the 410 nm signal was scaled by the regression coefficients, and then subtracted from the 488 nm signal.
# Each trace (corresponding to either a fiber photometry signal, a cellular two-photon signal, a widefield regional centroid, a widefield pixel, an sEEG trace, or a smoothed spike rate Neuropixels trace) was z-scored, and the power spectral density (PSD) was then estimated using Welch's method (pwelch( ) in Matlab), with a window size of 10*fs (15*fs for human sEEG) where fs is the sampling rate of the signal. The average band power within a specified band (i.e. 1-3 Hz) was then computed by integrating the PSD estimate (bandpower in Matlab). For displaying the traces of individual cells, traces were each zscored by subtracting the mean value of the trace (across the whole recorded time window) and dividing by the standard deviation of the trace. Unless otherwise indicated, the PSD was computed across the time window from minutes 10 to 11 post-injection.
# mice [2] = assay: Open field test; format: in vivo, mouse; settings: 5 min; vs saline; doses of b234
# Excerpt: Open Field Test: Mice were placed in an evenly illuminated 50 cm×50 cm open field test box. Mouse position was captured using a webcam and Viewer software (Biobserve).
# mice [3] = assay: Resident-intruder social interaction assay; format: in vivo, mouse; settings: PCP 5 mg/kg
# Procedure: Social Interaction Assay: Resident-intruder social interaction was recorded for two minutes. Interactions were defined as close physical proximity behaviors, including sniffing, touching, and following. […] Illumination began 30 seconds before the same-sex intruder mouse was introduced.
# mice [4] = assay: Hot plate test; settings: for Dissociation-like behavior: disconnection between sensory-detection and affective responses: other drug classes, doses of b234
# Procedure: Hot Plate Test: Mice were placed on the hot plate (Bioseb), which was set to 55° C. and surrounded by a clear circular perimeter. Mouse activity was recorded using two cameras from different angles. The experiment ended when the mouse jumped to escape or 90 seconds had elapsed. Care was taken to clean and dry the hot plate apparatus between animals. For optogenetic experiments, mice were connected to patch cords and then returned to a holding cage. Illumination began 30 seconds before mice were placed on the hot plate.
# mice [5] = assay: Tail suspension test; format: in vivo, mouse; settings: PCP 5 mg/kg
# Procedure: Tail Suspension Test: Mouse activity was recorded using a 60 Hz web camera. Struggling activity was quantified for minutes 2-10. […] Illumination began 30 seconds before tails were secured with tape and suspended from the beam. Mice were excluded if they climbed on their own tails.
Molecule,Cortical activity pattern: 1-3 Hz oscillation localized to retrosplenial cortex (RSP) [1],Open-field locomotion velocity (mice [2]),Social behavior (mice [3]),Dissociation-like behavior: disconnection between sensory-detection and affective responses (mice [4]),Longer-timescale escape behavior (mice [5]),"Responsivity to salient stimuli (time-to-jump, rearing/socialization) (mice [4]; LSD 0.3 mg/kg)"
C[C@]12N[C@H](Cc3ccccc31)c1ccccc12 [MK-801],induced the RSP-localized oscillation,,,,,
"CC12CC3CC(C)(C1)CC(N)(C3)C2 [Memantine, memantine]",did not elicit oscillation,,,,,
"c1ccc(C2(N3CCCCC3)CCCCC2)cc1 [PCP, phencyclidine]",induced the RSP-localized oscillation,locomotion velocity was unchanged,inhibited longer-timescale escape and social behaviors,recapitulated ketamine's behavioral disconnection between sensory-detection and affective responses in the hot-plate test,inhibited longer-timescale escape and social behaviors,
Cc1cccc([C@H](C)c2cnc[nH]2)c1C [dexmedetomidine],elicited waves of cortical activity without RSP restriction,,,,,
CN1C(=O)CN=C(c2ccccc2)c2cc(Cl)ccc21 [diazepam],Neither the GABAergic sedative diazepam nor the centrally-acting opioid-analgesic buprenorphine elicited the rhythm,decreased velocity,,did not recapitulate dissociative-like behavior,,
CC(C)c1cccc(C(C)C)c1O [propofol],elicited waves of cortical activity without RSP restriction,,,,,
(+)-Lysergic acid diethylamide (+)-tartrate (2:1) [LSD],did not elicit oscillation,reducing locomotion in the stimulus-poor open-field; also recorded: decreased velocity,,disrupted neither sensory-detection nor affective responses,,"tended to increase responsivity to salient stimuli (decreased time-to-jump, increased rearing/socialization)"
